According to the supplement of paper PMC9663587:

Columns and labels:
THZ1 = compound: CN(C)C/C=C/C(=O)Nc1ccc(C(=O)Nc2cccc(Nc3ncc(Cl)c(-c4c[nH]c5ccccc45)n3)c2)cc1 [THZ1]; experiment: GR value, 72 h; higher = faster growth (1 = untreated, <0 = killing);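 note: breast cancer and non-malignant breast epithelial lines, nine half-log doses, viable cells counted by Hoechst and LIVE/DEAD dye imaging versus time-zero plates and DMSO controls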
BSJ-03-123 = compound: CC(=O)c1c(C)c2cnc(Nc3ccc(N4CCN(CCOCCOCCOCCNC(=O)COc5cccc6c5C(=O)N(C5CCC(=O)NC5=O)C6=O)CC4)cn3)nc2n(C2CCCC2)c1=O [BSJ-03-123]; experiment: as above
[1] = compound: CCN1CCN(Cc2ccc(Nc3ncc(F)c(-c4cc(F)c5nc(C)n(C(C)C)c5c4)n3)nc2)CC1; experiment: as above
LEE011/Ribociclib [2] = compound: T1, CN(C)C(=O)c1cc2cnc(Nc3ccc(N4CCNCC4)cn3)nc2n1C1CCCC1 [LEE011/Ribociclib]; experiment: as above
[3] = compound: CC(=O)c1c(C)c2cnc(Nc3ccc(N4CCNCC4)cn3)nc2n(C2CCCC2)c1=O; experiment: as above
Neratinib/HKI272 = compound: CCOc1cc2ncc(C#N)c(Nc3ccc(OCc4ccccn4)c(Cl)c3)c2cc1NC(=O)/C=C/CN(C)C [Neratinib/HKI272]; experiment: as above
Flavopiridol [4] = compound: T2, CN1CC[C@H](c2c(O)cc(O)c3c(=O)cc(-c4ccccc4Cl)oc23)[C@H](O)C1 [Flavopiridol]; experiment: as above
[5] = compound: CCc1cnn2c(NCc3ccc[n+]([O-])c3)cc(N3CCCC[C@H]3CCO)nc12; experiment: as above
[6] = compound: CCN1CCN(Cc2ccc(Nc3ncc(F)c(-c4cc(F)c5nc(C)n(C(C)C)c5c4)n3)nc2)CC1; experiment: increase in dead-cell fraction, 72 h; higher = more death;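 note: breast cancer cell lines in 384-well plates, stained with Hoechst plus LIVE/DEAD far red dye and imaged, cells above an LDR intensity threshold counted dead, Hoechst-negative corpses included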
LEE011/Ribociclib [7] = compound: T1, LEE011/Ribociclib; experiment: as above
[8] = compound: CC(=O)c1c(C)c2cnc(Nc3ccc(N4CCNCC4)cn3)nc2n(C2CCCC2)c1=O; experiment: as above
Flavopiridol [9] = compound: T2, Flavopiridol; experiment: as above

With HCC1806 the GR value (THZ1; 0.0001 µM) was 1.08 GR, the GR value (THZ1; 0.0003162 µM) was 1.04 GR and the GR value (THZ1; 0.001 µM) was 1.04 GR. For the same cell line, the GR value (THZ1; 0.003162 µM) was 1 GR, the GR value (THZ1; 0.01 µM) was 0.968 GR and the GR value (THZ1; 0.03162 µM) was 0.739 GR. It also gave a GR value (THZ1; 0.1 µM) of 0.323 GR, a GR value (THZ1; 0.3162 µM) of -0.252 GR and a GR value (THZ1; 1 µM) of -0.656 GR. For the same cell line, the GR value (BSJ-03-123; 0.001 µM) was 1 GR, the GR value (BSJ-03-123; 0.003162 µM) was 0.98 GR and the GR value (BSJ-03-123; 0.01 µM) was 0.958 GR. It also gave a GR value (BSJ-03-123; 0.03162 µM) of 0.963 GR, a GR value (BSJ-03-123; 0.1 µM) of 0.902 GR and a GR value (BSJ-03-123; 0.3162 µM) of 0.831 GR. For the same cell line, the GR value (BSJ-03-123; 1 µM) was 0.648 GR, the GR value (BSJ-03-123; 3.162 µM) was 0.566 GR and the GR value (BSJ-03-123; 10 µM) was -0.0555 GR. It also gave a GR value ([1]; 0.001 µM) of 0.986 GR, a GR value ([1]; 0.003162 µM) of 0.943 GR and a GR value ([1]; 0.01 µM) of 0.894 GR. It also gave a GR value ([1]; 0.03162 µM) of 0.779 GR, a GR value ([1]; 0.1 µM) of 0.75 GR and a GR value ([1]; 0.3162 µM) of 0.667 GR. The GR value ([1]; 1 µM) was 0.447 GR, the GR value ([1]; 3.162 µM) was 0.129 GR and the GR value ([1]; 10 µM) was -0.456 GR. It also gave a GR value (LEE011/Ribociclib [2]; 0.001 µM) of 0.919 GR, a GR value (LEE011/Ribociclib [2]; 0.003162 µM) of 0.948 GR and a GR value (LEE011/Ribociclib [2]; 0.01 µM) of 0.884 GR. The GR value (LEE011/Ribociclib [2]; 0.03162 µM) was 0.886 GR, the GR value (LEE011/Ribociclib [2]; 0.1 µM) was 0.876 GR and the GR value (LEE011/Ribociclib [2]; 0.3162 µM) was 0.824 GR. For the same cell line, the GR value (LEE011/Ribociclib [2]; 1 µM) was 0.796 GR, the GR value (LEE011/Ribociclib [2]; 3.162 µM) was 0.801 GR and the GR value (LEE011/Ribociclib [2]; 10 µM) was 0.699 GR. The GR value ([3]; 0.0003162 µM) was 1.07 GR, the GR value ([3]; 0.001 µM) was 1.02 GR and the GR value ([3]; 0.003162 µM) was 0.939 GR. For the same cell line, the GR value ([3]; 0.01 µM) was 0.965 GR, the GR value ([3]; 0.03162 µM) was 0.851 GR and the GR value ([3]; 0.1 µM) was 0.695 GR. The GR value ([3]; 0.3162 µM) was 0.739 GR, the GR value ([3]; 1 µM) was 0.625 GR and the GR value ([3]; 3.162 µM) was 0.771 GR. The GR value (Neratinib/HKI272; 0.0003162 µM) was 1.08 GR, the GR value (Neratinib/HKI272; 0.001 µM) was 1.06 GR and the GR value (Neratinib/HKI272; 0.003162 µM) was 1.04 GR. It also gave a GR value (Neratinib/HKI272; 0.01 µM) of 0.99 GR, a GR value (Neratinib/HKI272; 0.03162 µM) of 0.881 GR and a GR value (Neratinib/HKI272; 0.1 µM) of 0.811 GR. For the same cell line, the GR value (Neratinib/HKI272; 0.3162 µM) was 0.675 GR, the GR value (Neratinib/HKI272; 1 µM) was 0.546 GR and the GR value (Neratinib/HKI272; 3.162 µM) was -0.0945 GR. For the same cell line, the GR value (Flavopiridol [4]; 0.0001 µM) was 0.956 GR, the GR value (Flavopiridol [4]; 0.0003162 µM) was 1.03 GR and the GR value (Flavopiridol [4]; 0.001 µM) was 1.04 GR. For the same cell line, the GR value (Flavopiridol [4]; 0.003162 µM) was 0.878 GR, the GR value (Flavopiridol [4]; 0.01 µM) was 1.03 GR and the GR value (Flavopiridol [4]; 0.03162 µM) was 0.926 GR. For the same cell line, the GR value (Flavopiridol [4]; 0.1 µM) was 0.659 GR, the GR value (Flavopiridol [4]; 0.3162 µM) was 0.199 GR and the GR value (Flavopiridol [4]; 1 µM) was -0.565 GR. It also gave a GR value ([5]; 0.0001 µM) of 1.04 GR, a GR value ([5]; 0.0003162 µM) of 1.05 GR and a GR value ([5]; 0.001 µM) of 1 GR. For the same cell line, the GR value ([5]; 0.003162 µM) was 1.01 GR, the GR value ([5]; 0.01 µM) was 0.798 GR and the GR value ([5]; 0.03162 µM) was -0.315 GR. The GR value ([5]; 0.1 µM) was -0.472 GR, the GR value ([5]; 0.3162 µM) was -0.465 GR and the GR value ([5]; 1 µM) was -0.45 GR. For the same cell line, the “increase in dead-cell fraction” value ([6]; 0.001 µM) was 0.0032, the “increase in dead-cell fraction” value ([6]; 0.003162 µM) was -0.005 and the “increase in dead-cell fraction” value ([6]; 0.01 µM) was 0.0052. The “increase in dead-cell fraction” value ([6]; 0.03162 µM) was 0.0175, the “increase in dead-cell fraction” value ([6]; 0.1 µM) was 0.0076 and the “increase in dead-cell fraction” value ([6]; 0.3162 µM) was 0.0172. For the same cell line, the “increase in dead-cell fraction” value ([6]; 1 µM) was 0.043, the “increase in dead-cell fraction” value ([6]; 3.162 µM) was 0.154 and the “increase in dead-cell fraction” value ([6]; 10 µM) was 0.698. For the same cell line, the “increase in dead-cell fraction” value (LEE011/Ribociclib [7]; 0.001 µM) was 0.0002, the “increase in dead-cell fraction” value (LEE011/Ribociclib [7]; 0.003162 µM) was -0.0001 and the “increase in dead-cell fraction” value (LEE011/Ribociclib [7]; 0.01 µM) was 0.0014. For the same cell line, the “increase in dead-cell fraction” value (LEE011/Ribociclib [7]; 0.03162 µM) was -0.0047, the “increase in dead-cell fraction” value (LEE011/Ribociclib [7]; 0.1 µM) was 0.0015 and the “increase in dead-cell fraction” value (LEE011/Ribociclib [7]; 0.3162 µM) was 0.0032. For the same cell line, the “increase in dead-cell fraction” value (LEE011/Ribociclib [7]; 1 µM) was 0.0064, the “increase in dead-cell fraction” value (LEE011/Ribociclib [7]; 3.162 µM) was 0.0046 and the “increase in dead-cell fraction” value (LEE011/Ribociclib [7]; 10 µM) was 0.0171. The “increase in dead-cell fraction” value ([8]; 0.0003162 µM) was 0.0005, the “increase in dead-cell fraction” value ([8]; 0.001 µM) was 0.0026 and the “increase in dead-cell fraction” value ([8]; 0.003162 µM) was 0.0009. For the same cell line, the “increase in dead-cell fraction” value ([8]; 0.01 µM) was -0.0004, the “increase in dead-cell fraction” value ([8]; 0.03162 µM) was 0.0094 and the “increase in dead-cell fraction” value ([8]; 0.1 µM) was 0.0238. The “increase in dead-cell fraction” value ([8]; 0.3162 µM) was 0.0157, the “increase in dead-cell fraction” value ([8]; 1 µM) was 0.0237 and the “increase in dead-cell fraction” value ([8]; 3.162 µM) was 0.0046. The “increase in dead-cell fraction” value (Flavopiridol [9]; 0.0001 µM) was -0.0011, the “increase in dead-cell fraction” value (Flavopiridol [9]; 0.0003162 µM) was -0.0029 and the “increase in dead-cell fraction” value (Flavopiridol [9]; 0.001 µM) was 0.003. The “increase in dead-cell fraction” value (Flavopiridol [9]; 0.003162 µM) was -0.001, the “increase in dead-cell fraction” value (Flavopiridol [9]; 0.01 µM) was 0.0029 and the “increase in dead-cell fraction” value (Flavopiridol [9]; 0.03162 µM) was 0.005. The “increase in dead-cell fraction” value (Flavopiridol [9]; 0.1 µM) was 0.019, the “increase in dead-cell fraction” value (Flavopiridol [9]; 0.3162 µM) was 0.0572 and the “increase in dead-cell fraction” value (Flavopiridol [9]; 1 µM) was 0.71.
